Measurements: article PMC11447812, “How ATP and dATP Act as Molecular Switches to Regulate Enzymatic Activity in the Prototypical Bacterial Class Ia Ribonucleotide Reductase” (Biochemistry, 2024)

Legend:
[1] = target: T1, E. coli class Ia RNR α subunit (W28A-α2) (Escherichia coli, UniProt P00452, W28A); assay: […] Å crystal structure with ATP; format: binding
T1 construct: gene nrdA; His6-W28A-α2
T1 sequence (P00452 1-761 W28A): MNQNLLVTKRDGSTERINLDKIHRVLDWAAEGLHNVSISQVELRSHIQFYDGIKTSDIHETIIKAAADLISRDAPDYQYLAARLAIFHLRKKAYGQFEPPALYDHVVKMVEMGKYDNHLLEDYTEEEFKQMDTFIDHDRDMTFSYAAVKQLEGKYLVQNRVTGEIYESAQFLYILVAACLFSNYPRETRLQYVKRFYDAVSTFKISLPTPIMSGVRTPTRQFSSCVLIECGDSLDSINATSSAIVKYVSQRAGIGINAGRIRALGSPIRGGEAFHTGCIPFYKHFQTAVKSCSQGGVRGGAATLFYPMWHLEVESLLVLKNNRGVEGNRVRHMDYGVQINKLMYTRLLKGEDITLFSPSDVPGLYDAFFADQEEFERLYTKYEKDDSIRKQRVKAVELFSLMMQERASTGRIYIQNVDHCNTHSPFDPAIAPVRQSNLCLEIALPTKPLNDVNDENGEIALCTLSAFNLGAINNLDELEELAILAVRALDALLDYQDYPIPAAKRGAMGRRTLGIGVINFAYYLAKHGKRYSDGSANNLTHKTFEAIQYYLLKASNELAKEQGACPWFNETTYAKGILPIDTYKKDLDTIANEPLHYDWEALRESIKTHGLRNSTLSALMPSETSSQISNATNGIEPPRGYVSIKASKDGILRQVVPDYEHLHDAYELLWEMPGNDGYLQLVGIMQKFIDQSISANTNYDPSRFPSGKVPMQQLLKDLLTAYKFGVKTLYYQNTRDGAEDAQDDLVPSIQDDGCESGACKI
T1 sequence (P69924 2-376 partner): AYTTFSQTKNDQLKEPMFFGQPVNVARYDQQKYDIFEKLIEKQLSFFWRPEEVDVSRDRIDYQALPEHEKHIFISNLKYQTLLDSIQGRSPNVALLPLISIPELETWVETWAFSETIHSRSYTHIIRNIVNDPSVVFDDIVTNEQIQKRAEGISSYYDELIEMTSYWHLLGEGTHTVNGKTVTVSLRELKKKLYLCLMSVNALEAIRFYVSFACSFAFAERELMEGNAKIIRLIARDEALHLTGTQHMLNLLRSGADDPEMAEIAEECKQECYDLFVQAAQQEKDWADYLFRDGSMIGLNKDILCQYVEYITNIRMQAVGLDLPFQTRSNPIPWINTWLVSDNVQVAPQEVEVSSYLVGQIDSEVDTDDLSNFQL

[2] = target: T1, E. coli class Ia RNR α subunit (W28A-α2); assay: […] Å crystal structure W28A-α2-dATP/GTP; inhibition in activity assay; format: binding

| SMILES | 2.6 Å crystal structure with ATP [1] | 3.55 Å crystal structure W28A-α2-dATP/GTP; inhibition in activity assay [2] |
| --- | --- | --- |
| Nc1ccn([C@@H]2O[C@H](COP(=O)(O)OP(=O)(O)O)[C@@H](O)[C@H]2O)c(=O)n1 [CDP] | provides a higher-resolution picture of the active site bound to the CDP/ATP substrate/effector pair | – |
| Nc1ncnc2c1ncn2[C@H]1C[C@H](O)[C@@H](COP(=O)(O)OP(=O)(O)OP(=O)(O)O)O1 [dATP] | – | dATP was placed in the specificity site based on omit maps. |
